Results on seven compounds are retold here after the kinase profiling compilation of Christmann-Franck et al. (2016).

Holding throughout (experiment): KINOMEscan competition binding
What all share (conditions): compound 10.0 µM

For experiment [1], the system named is KIT (human), P10721 [V559D/T670I].
The target in a further experiment is BRAF (human) (UniProt P15056).
A further experiment has as its target PIK3CG (human) (UniProt P48736).
For a further experiment, the target named is TIE1 (human) (UniProt P35590).
Experiment [2] relates to ABL1 (human), P00519 [E255K].
Experiment [3] deals with FLT3 (human), P36888 [K663Q].
The next experiment has as its target CDK2 (human) (UniProt P24941).
For another experiment, the target named is KIT (human) (UniProt P10721).
Experiment [4] has as its system PIK3CA (human), P42336 [E545K].
Experiment [5] relates to EGFR (human), P00533 [746-750 del].
Another experiment concerns the target EPHB6 (human) (UniProt O15197).
For another experiment, the target named is PI4KB (human) (UniProt Q9UBF8).
Another experiment concerns the target MAP3K2 (human) (UniProt Q9Y2U5).
The target in the next experiment is MAP3K13 (human) (UniProt O43283).
In another experiment the target is MATK (human) (UniProt P42679).
For a further experiment, the target named is HIPK4 (human) (UniProt Q8NE63).
Another experiment deals with HIPK3 (human) (UniProt Q9H422).
The target of another experiment is TBK1 (human) (UniProt Q9UHD2).
A further experiment addresses ERBB3 (human) (UniProt P21860).
The next experiment addresses GRK7 (human) (UniProt Q8WTQ7).
The subject of experiment [6] is EGFR (human), P00533 [P753S; 747-752 del].
The next experiment has as its target SBK1 (human) (UniProt Q52WX2).
A further experiment addresses MAP3K15 (human) (UniProt Q6ZN16).
The target of a further experiment is OXSR1 (human) (UniProt O95747).
The next experiment deals with ROCK1 (human) (UniProt Q13464).
The target in another experiment is ERN1 (human) (UniProt O75460).
In another experiment the target is MAST1 (human) (UniProt Q9Y2H9).
In a further experiment the target is DYRK2 (human) (UniProt Q92630).

Chain of KIT (human) (P10721 whole entry, looked up): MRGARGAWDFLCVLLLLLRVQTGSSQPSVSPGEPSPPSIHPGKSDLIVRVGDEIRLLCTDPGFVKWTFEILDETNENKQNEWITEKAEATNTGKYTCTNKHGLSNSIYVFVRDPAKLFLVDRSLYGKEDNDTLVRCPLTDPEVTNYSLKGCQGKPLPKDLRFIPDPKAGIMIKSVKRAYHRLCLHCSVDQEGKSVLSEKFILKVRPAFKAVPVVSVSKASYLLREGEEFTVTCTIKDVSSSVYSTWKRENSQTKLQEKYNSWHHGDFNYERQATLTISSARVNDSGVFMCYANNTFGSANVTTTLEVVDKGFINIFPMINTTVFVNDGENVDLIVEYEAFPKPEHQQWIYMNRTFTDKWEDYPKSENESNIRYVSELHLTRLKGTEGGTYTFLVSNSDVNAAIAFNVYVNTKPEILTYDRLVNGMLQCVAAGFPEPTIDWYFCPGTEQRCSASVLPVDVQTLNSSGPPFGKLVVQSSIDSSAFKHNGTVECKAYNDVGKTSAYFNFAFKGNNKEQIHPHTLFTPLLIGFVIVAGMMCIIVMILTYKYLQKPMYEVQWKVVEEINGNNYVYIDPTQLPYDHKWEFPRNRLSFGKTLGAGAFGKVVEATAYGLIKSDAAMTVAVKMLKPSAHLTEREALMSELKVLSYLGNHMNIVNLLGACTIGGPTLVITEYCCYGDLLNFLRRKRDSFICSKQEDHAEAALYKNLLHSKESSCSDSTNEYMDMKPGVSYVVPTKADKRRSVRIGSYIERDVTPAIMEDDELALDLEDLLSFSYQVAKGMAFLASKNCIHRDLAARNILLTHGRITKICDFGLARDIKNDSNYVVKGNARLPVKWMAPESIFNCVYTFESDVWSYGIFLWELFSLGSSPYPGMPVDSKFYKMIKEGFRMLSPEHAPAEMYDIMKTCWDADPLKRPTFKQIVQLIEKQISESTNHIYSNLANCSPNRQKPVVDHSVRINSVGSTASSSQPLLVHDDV
Chain of SBK1 (human) (Q52WX2 whole entry, looked up): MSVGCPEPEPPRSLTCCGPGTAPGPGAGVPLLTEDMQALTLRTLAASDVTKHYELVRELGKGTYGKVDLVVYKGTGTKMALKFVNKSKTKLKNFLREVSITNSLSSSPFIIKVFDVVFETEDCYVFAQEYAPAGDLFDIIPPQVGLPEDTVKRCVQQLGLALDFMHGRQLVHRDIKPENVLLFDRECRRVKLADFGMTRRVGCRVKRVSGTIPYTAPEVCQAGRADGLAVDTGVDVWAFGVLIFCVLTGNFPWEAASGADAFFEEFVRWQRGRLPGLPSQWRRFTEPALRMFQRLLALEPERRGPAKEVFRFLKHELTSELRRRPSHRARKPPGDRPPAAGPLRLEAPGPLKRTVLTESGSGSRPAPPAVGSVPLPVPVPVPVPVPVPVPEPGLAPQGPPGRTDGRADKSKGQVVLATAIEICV
Chain of PIK3CA (human), P42336 [E545K] (P42336 whole entry E545K, looked up): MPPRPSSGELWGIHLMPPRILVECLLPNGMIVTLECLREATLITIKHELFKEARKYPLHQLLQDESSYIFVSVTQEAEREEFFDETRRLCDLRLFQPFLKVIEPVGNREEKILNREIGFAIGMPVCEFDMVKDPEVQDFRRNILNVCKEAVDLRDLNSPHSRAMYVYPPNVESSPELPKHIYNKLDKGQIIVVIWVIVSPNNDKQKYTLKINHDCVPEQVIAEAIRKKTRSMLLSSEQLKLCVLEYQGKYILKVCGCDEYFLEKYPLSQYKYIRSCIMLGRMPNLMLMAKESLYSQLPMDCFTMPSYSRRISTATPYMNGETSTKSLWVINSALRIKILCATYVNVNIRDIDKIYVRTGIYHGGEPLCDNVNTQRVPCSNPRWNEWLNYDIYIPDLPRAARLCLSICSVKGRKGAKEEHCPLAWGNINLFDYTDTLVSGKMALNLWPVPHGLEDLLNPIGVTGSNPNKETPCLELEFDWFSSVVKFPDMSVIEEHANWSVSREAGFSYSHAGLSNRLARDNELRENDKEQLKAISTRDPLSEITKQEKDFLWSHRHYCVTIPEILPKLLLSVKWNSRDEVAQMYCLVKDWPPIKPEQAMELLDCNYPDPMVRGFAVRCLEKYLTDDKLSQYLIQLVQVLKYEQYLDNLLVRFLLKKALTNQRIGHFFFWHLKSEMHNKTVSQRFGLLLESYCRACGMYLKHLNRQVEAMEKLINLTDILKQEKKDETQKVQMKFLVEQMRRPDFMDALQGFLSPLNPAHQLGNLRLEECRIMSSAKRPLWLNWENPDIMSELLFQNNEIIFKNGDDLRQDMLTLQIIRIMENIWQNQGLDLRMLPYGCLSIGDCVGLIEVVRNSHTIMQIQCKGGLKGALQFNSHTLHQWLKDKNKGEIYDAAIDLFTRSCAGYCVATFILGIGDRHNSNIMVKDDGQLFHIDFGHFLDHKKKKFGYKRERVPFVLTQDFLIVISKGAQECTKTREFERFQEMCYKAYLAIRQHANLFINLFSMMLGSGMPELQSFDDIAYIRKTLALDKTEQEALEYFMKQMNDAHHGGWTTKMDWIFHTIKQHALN
Chain of MAP3K2 (human) (Q9Y2U5 whole entry, looked up): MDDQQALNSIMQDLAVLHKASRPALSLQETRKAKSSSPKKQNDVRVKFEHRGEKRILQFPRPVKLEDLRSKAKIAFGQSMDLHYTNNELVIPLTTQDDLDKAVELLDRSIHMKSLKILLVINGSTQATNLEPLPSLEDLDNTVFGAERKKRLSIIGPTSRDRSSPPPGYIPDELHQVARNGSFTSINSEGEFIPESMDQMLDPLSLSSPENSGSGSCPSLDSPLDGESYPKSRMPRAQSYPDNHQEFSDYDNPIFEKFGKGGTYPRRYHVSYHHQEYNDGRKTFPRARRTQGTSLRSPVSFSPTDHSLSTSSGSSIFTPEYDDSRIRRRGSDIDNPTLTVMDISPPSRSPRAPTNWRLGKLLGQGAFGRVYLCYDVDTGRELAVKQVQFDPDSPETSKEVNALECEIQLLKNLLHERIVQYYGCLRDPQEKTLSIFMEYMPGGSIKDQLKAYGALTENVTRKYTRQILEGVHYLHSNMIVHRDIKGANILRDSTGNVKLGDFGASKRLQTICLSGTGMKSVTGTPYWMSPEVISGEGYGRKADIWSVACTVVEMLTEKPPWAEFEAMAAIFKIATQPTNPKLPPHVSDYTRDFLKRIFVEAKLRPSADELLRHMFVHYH
Chain of KIT (human), P10721 [V559D/T670I] (P10721 whole entry V559D/T670I, looked up): as the sequence (P10721 whole entry, looked up) above, with V559D, T670I counted along it
Chain of ROCK1 (human) (Q13464 whole entry, looked up): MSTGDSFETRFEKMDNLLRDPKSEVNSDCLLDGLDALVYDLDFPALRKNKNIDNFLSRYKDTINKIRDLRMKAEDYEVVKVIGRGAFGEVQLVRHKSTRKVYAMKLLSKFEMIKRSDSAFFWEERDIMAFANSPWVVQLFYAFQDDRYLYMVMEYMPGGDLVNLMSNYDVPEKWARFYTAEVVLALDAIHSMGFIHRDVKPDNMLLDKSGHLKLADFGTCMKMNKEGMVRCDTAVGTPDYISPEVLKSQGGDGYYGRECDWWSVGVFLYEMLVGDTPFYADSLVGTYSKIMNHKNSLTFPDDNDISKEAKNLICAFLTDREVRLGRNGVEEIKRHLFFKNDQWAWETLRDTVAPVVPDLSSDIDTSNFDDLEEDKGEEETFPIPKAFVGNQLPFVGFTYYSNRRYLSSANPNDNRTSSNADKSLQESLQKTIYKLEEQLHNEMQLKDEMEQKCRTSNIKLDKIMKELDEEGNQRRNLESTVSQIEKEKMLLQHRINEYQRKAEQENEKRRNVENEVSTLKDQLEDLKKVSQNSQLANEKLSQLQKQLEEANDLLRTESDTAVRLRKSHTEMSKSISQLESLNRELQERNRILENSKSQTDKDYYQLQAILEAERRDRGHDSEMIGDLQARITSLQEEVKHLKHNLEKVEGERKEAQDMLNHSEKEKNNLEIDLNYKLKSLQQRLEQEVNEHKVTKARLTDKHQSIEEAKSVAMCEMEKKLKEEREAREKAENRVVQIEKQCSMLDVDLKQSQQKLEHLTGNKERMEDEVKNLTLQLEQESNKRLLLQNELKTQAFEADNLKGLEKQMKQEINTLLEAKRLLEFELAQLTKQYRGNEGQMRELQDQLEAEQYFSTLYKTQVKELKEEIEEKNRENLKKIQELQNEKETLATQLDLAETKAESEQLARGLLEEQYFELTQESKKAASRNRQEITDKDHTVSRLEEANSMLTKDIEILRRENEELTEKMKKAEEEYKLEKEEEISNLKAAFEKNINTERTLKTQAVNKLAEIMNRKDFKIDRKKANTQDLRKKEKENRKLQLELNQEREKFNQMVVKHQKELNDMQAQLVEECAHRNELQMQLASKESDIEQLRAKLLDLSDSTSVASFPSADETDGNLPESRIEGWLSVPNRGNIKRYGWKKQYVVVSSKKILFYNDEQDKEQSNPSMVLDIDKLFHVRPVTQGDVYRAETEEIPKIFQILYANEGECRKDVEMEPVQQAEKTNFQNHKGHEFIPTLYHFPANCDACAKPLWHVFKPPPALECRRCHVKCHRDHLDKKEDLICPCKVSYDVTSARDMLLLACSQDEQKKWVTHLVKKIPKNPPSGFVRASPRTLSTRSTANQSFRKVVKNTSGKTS
Chain of HIPK4 (human) (Q8NE63 whole entry, looked up): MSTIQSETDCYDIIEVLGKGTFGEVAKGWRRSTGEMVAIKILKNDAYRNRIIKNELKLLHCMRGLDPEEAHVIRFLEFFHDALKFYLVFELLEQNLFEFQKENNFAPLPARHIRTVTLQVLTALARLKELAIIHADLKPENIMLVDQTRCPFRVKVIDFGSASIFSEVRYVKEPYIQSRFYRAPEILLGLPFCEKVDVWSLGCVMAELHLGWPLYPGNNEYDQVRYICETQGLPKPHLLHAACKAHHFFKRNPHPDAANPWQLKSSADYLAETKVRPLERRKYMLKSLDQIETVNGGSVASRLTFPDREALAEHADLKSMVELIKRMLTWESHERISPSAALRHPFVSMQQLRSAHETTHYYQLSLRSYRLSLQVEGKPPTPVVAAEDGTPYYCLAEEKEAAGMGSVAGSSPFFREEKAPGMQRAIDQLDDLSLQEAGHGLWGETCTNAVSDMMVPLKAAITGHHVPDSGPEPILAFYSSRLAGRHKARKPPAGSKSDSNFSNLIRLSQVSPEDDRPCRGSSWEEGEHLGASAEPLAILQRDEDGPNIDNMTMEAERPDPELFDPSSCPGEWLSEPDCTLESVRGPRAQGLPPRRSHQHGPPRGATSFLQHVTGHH

For `CC[C@@H]1C(=O)N(C)c2cnc(Nc3ccc(C(=O)NC4CCN(C)CC4)cc3OC)nc2N1C1CCCC1`, the kinase still bound, per cent of control (in experiment [1]; at BRAF (human); on PIK3CG (human); at TIE1 (human); in [2]; in experiment [3]) was 100% throughout. Further, the kinase still bound, per cent of control (at CDK2 (human); on KIT (human); in experiment [4]) was 100% in each case.
With `Cn1c(=O)n(-c2ccc(C(C)(C)C#N)cc2)c2c3cc(-c4cnc5ccccc5c4)ccc3ncc21`, the kinase still bound, per cent of control was found to be 100% in experiment [5]; 100% in experiment [1]; 100% at EPHB6 (human); 100% on BRAF (human); 23% at PIK3CG (human); 100% on PI4KB (human). The kinase still bound, per cent of control on TIE1 (human), on MAP3K2 (human), on MAP3K13 (human), at MATK (human), at HIPK4 (human) and at HIPK3 (human) was 100% each time. In addition, the kinase still bound, per cent of control (at TBK1 (human); at ERBB3 (human); in [2]; in [3]; on GRK7 (human); in experiment [6]) was 100% each time. For the same compound, the kinase still bound, per cent of control on SBK1 (human), on MAP3K15 (human), at CDK2 (human), at OXSR1 (human), at KIT (human) and at ROCK1 (human) was 100% each time. Moreover, the kinase still bound, per cent of control in experiment [4] was found to be 3%; on ERN1 (human) it was 100%; on MAST1 (human), 100%; on DYRK2 (human), 100%.
For the compound `C=CC(=O)Nc1cccc(Oc2nc(Nc3ccc(N4CCN(C)CC4)cc3OC)ncc2Cl)c1`, the kinase still bound, per cent of control worked out at 0.2% in experiment [5]; 100% in experiment [1]; 100% at BRAF (human); 100% on PIK3CG (human); 100% at TIE1 (human); 100% in experiment [2]. The kinase still bound, per cent of control in [3] was 1.1%; in experiment [6] it was 0.4%; on CDK2 (human), 100%; on KIT (human) it was 34%; in experiment [4], 100%.
On to `COc1cc(C(=O)NC2CCN(C)CC2)ccc1Nc1ncc2c(n1)N(C1CCCC1)C(C)CC(=O)N2C` (centres undefined), for which the kinase still bound, per cent of control (in [5]; in experiment [1]; on PIK3CG (human); on TIE1 (human); in [2]; in [3]) was 100% throughout. Also, the kinase still bound, per cent of control (in [6]; on CDK2 (human); on KIT (human); in [4]) was 100% each time.
`Cc1ccc(C(=O)Nc2cccc(C(F)(F)F)c2)cc1Nc1cncc(C(N)=O)c1`: the kinase still bound, per cent of control in [5] was 100%; in experiment [1] it was 100%; on BRAF (human), 2%; at PIK3CG (human), 100%; on TIE1 (human) it was 100%; in experiment [2] it was 100%. For the same compound, the kinase still bound, per cent of control in experiment [3] was determined as 100%; in experiment [6] it was 100%; on CDK2 (human), 100%; at KIT (human) it was 0%; in experiment [4] it was 100%.
With `OCCCNc1cc(-c2ccnc(Nc3cccc(Cl)c3)n2)ccn1`, the kinase still bound, per cent of control (in experiment [5]; in [1]; at EPHB6 (human); on BRAF (human); on PIK3CG (human); on PI4KB (human)) was 100% each time. The kinase still bound, per cent of control at TIE1 (human) was 100%; at MAP3K2 (human) it was 100%; on MAP3K13 (human) it was 100%; on MATK (human), 100%; at HIPK4 (human) it was 14%; on HIPK3 (human) it was 100%. For the same compound, the kinase still bound, per cent of control (at TBK1 (human); at ERBB3 (human); in experiment [2]; in experiment [3]; at GRK7 (human); in [6]) was 100% each time. For the same compound, the kinase still bound, per cent of control on SBK1 (human), at MAP3K15 (human), on CDK2 (human), on OXSR1 (human), at KIT (human) and on ROCK1 (human) was 100% in each case. The kinase still bound, per cent of control (in experiment [4]; at ERN1 (human); at MAST1 (human); at DYRK2 (human)) was 100% in each case.
As to `COc1cc(C(=O)NC2CCN(C)CC2)ccc1Nc1ncc2c(n1)N(C1CCCC1)CCC(=O)N2C(C)C`, the kinase still bound, per cent of control (in [5]; in experiment [1]; on EPHB6 (human); on PIK3CG (human); on PI4KB (human); on TIE1 (human)) was 100% in each case. Further, the kinase still bound, per cent of control on MAP3K2 (human), at MAP3K13 (human), on MATK (human), at HIPK4 (human), at HIPK3 (human) and on TBK1 (human) was 100% throughout. Besides, the kinase still bound, per cent of control (at ERBB3 (human); in [2]; in experiment [3]; at GRK7 (human); in experiment [6]; on SBK1 (human)) was 100% in each case. Further, the kinase still bound, per cent of control (on MAP3K15 (human); at CDK2 (human); on OXSR1 (human); on KIT (human); on ROCK1 (human); in experiment [4]) was 100% in each case. In addition, the kinase still bound, per cent of control on ERN1 (human), at MAST1 (human) and on DYRK2 (human) was 100% throughout.
